US10125111B2, “Benzofuran compounds for the treatment of hepatitis C” (BRISTOL-MYERS SQUIBB COMPANY, priority 2015, dated 2018)
Where two headings read alike, the source gives them in different places.

Experiments:
[1] = test system: genotype 1b (Con-1) HCV replicon; test: HCV Replicon Luciferase Assay; type: cell-based; settings: Hepatitis C virus, 72 h, Huh-7 genotype 1b replicon, Renilla luciferase, 3 days incubation
Procedure: The cell lines used to evaluate compounds consist of a human hepatocyte derived cell line (Huh-7) that constitutively expresses a genotype 1b (Con-1) HCV replicon or a genotype 1b (Con-1) HCV replicon with an asparagine replacing the cysteine at amino acid 316, or a genotype 2a (JFH-1) replicon, containing a Renilla luciferase reporter gene. These cells were maintained in Dulbecco's modified Eagle medium (DMEM) containing 10% FBS, 100 U/mL penicillin/streptomycin and 1.0 mg/mL G418.
To evaluate compound efficacy, titrated compounds were transferred to sterile 384-well tissue culture treated plates, and the plates were seeded with HCV replicon cells (50 μL at a density of 2.4×10^3 cells/well) in DMEM containing 4% FBS (final DMSO concentration at 0.5%). After 3 days incubation at 37° C., cells were analyzed for Renilla Luciferase activity using the EnduRen substrate (Promega cat #E6485) according to the manufacturer's directions. Briefly, the EnduRen substrate was diluted in DMEM and then added to the plates to a final concentration of 7.5 μM. The plates were incubated for at least 1 h at 37° C. then read on a Viewlux Imager (PerkinElmer) using a luminescence program. The 50% effective concentration (EC50) was calculated using the four-parameter logistic Formula noted above.
Compound EC50 data is expressed as A: <100 nM; B=100-1000 nM; C>1000 nM).

HCV = settings: cited from earlier work

## [2H]C([2H])([2H])C(NC(=O)c1cccc(-c2cc3c(C(=O)NC)c(-c4ccc(F)cc4)oc3cc2N(C(F)F)S(C)(=O)=O)c1)(C([2H])([2H])[2H])C([2H])([2H])[2H] [Compound 6006]
[1]; read-out: EC50 1b (class)
  EC50: < 0.1 µM

## CNC(=O)c1c(-c2ccc(F)cc2)oc2cc(N(CC(F)F)S(C)(=O)=O)c(-c3cccc(C(=O)OC)c3)cc12 [Compound 7001]
[1]; read-out: EC50 1b (class)
  EC50: < 0.1 µM

## CNC(=O)c1c(-c2ccc(F)cc2)oc2cc(N(CC(F)F)S(C)(=O)=O)c(-c3cccc(C(=O)NC(C)(C)C(F)(F)F)c3)cc12 [Compound 7003]
[1]; read-out: EC50 1b (class)
  EC50: < 0.1 µM

## CNC(=O)c1c(-c2ccc(F)cc2)oc2cc(N(CC(F)F)S(C)(=O)=O)c(-c3cccc(C(=O)NC(CF)(CF)CF)c3)cc12 [Compound 7004]
[1]; read-out: EC50 1b (class)
  EC50: < 0.1 µM

## CNC(=O)c1c(-c2ccc(F)cc2)oc2cc(N(CC=C(F)F)S(C)(=O)=O)c(-c3cccc(C(=O)OC)c3)cc12 [Compound 8001]
[1]; read-out: EC50 1b (class)
  EC50: < 0.1 µM

## CNC(=O)c1c(-c2ccc(F)cc2)oc2cc(N(CCC(F)(F)F)S(C)(=O)=O)c(-c3cccc(C(=O)O)c3)cc12 [Compound 9002]
[1]; read-out: EC50 1b (class)
  EC50: > 1 µM

## CNC(=O)c1c(-c2ccc(F)cc2)oc2cc(N(CCC(F)(F)F)S(C)(=O)=O)c(-c3cccc(C(=O)NCC(F)(F)C(F)(F)F)c3)cc12 [Compound 9003]
[1]; read-out: EC50 1b (class)
  EC50: < 0.1 µM
[1]; read-out: EC50 (uM) 1b
  EC50: 0.0076 µM

## CNC(=O)c1c(-c2ccc(F)cc2)oc2cc(N(CCC(F)(F)F)S(C)(=O)=O)c(-c3cccc(C(=O)NC(C)(C)C(F)(F)F)c3)cc12 [Compound 9004]
[1]; read-out: EC50 1b (class)
  EC50: < 0.1 µM
[1]; read-out: EC50 (uM) 1b
  EC50: 0.0106 µM

## CNC(=O)c1c(-c2ccc(F)cc2)oc2cc(N(CCC(F)(F)F)S(C)(=O)=O)c(-c3cccc(C(=O)NC(CF)(CF)CF)c3)cc12 [Compound 9005]
[1]; read-out: EC50 1b (class)
  EC50: < 0.1 µM

## CNC(=O)c1c(-c2ccc(F)cc2)oc2cc(N(CCC(F)(F)F)S(C)(=O)=O)c(-c3cccc(C(=O)NC(C)(C)C#N)c3)cc12 [Compound 9006]
[1]; read-out: EC50 1b (class)
  EC50: < 0.1 µM

## CNC(=O)c1c(-c2ccc(F)cc2)oc2cc(N(CCC(F)(F)F)S(C)(=O)=O)c(-c3cccc(C(=O)NC(C)(C)CF)c3)cc12 [Compound 9007]
[1]; read-out: EC50 1b (class)
  EC50: < 0.1 µM

## CNC(=O)c1c(-c2ccc(F)cc2)oc2cc(N(CCO)S(C)(=O)=O)c(C3CC3)cc12 [HCV-796]
HCV; combination regimens with interferon and ribavirin
  toxicity during extended dosing: hepatic toxicity

## alpha-interferon and ribavirin
HCV; combination therapy, patients
  sustained efficacy, patients: 40%
